Reference: US20200017823A1, “HYDROGEL COMPOSITIONS FOR USE IN NEURAL CELL EXPANSION AND DIFFERENTIATION” (Wisconsin Alumni Research Foundation, priority 2018, published 2020)
Where two headings read alike, the source gives them in different places.

Tests used:
iCell Neurons [1] = test: High-content imaging with skeleton network analysis: neurite branches versus cell viability
Protocol: All data points are mean±SEM. FIG. 14A: Dexamethasone. FIG. 14B: Colchicine.
Commercially available human iPSC-derived neurons (iCell Neurons) and their supporting media were purchased from Cellular Dynamics International (CDI, Madison, Wis.). Previously characterized iCell Neurons represent a mixture of post-mitotic GABAergic and glutamatergic neurons with >95% purity. The cells were received, frozen, thawed, and plated following a protocol recommended by CDI. Briefly, cells were plated on poly-L-lysine pre-coated 384 well plates (Greiner Bio-One) with PEG-NB hydrogels, 3.3 μg/ml laminin, or 60-120 μg/ml […]®.

iCell Neurons [2] = test: Synthetic hydrogel-based network formation/inhibition assay (total network area); format: cell-based, human; details: PLL/Laminin and MATRIGEL screening systems
From the text: Total network area was quantified by thresholding neurite processes and cell bodies stained with immunofluorescent tags for βIII-tubulin and MAP2. The resulting data was compared using the Z′ statistic to assess the accuracy of the synthetic hydrogel, PLL/Laminin, and MATRIGEL® screening systems in distinguishing neuronal networks disrupted by the known microtubule inhibitor Colchicine from non-inhibited networks.

Compound | cell viability (iCell Neurons [1]) | neurite branches / neurite growth (iCell Neurons [1]) | neurite branches / neurite growth (iCell Neurons [1]; synthetic substrate, treated after 120-hour growth, exposed 120 hours, media replenished daily, compared to cell viability) | neuronal network (total network area, βIII-tubulin and MAP2 stain) (iCell Neurons [2])
NC(=O)N1c2ccccc2C=Cc2ccccc21 [Carbamazepine] | reduced viability | apparent inhibition | – | –
COc1cc2c(c(OC)c1OC)-c1ccc(OC)c(=O)cc1[C@@H](NC(C)=O)CC2 [Colchicine] | – | – | significant reductions | disrupted
C[C@@H]1C[C@H]2[C@@H]3CCC4=CC(=O)C=C[C@]4(C)[C@@]3(F)[C@@H](O)C[C@]2(C)[C@@]1(O)C(=O)CO [Dexamethasone] | – | significant reductions | – | –
